Patent publication US8673974B2, “Substituted amino bisphenyl pentanoic acid derivatives as NEP inhibitors” (Novartis AG, priority 2010, dated 2014)
pIC50: −log10 of the molar value.

Target: T1, recombinant human neutral endopeptidase (NEP, EC 3.4.24.11) (Homo sapiens, UniProt P08473)
T1 construct: made in house; host or cells: insect cells
Test: in vitro inhibition of recombinant human neutral endopeptidase (fluorescence lifetime assay)
Type: biochemical
Conditions: recombinant human NEP 7 pM, 1 hour pre-incubation, substrate Cys(PT14)-Arg-Arg-Leu-Trp-OH 0.7 μM, read after 1 hour at room temperature, pH 7.4
Excerpt: The activity of a compound according to the present invention can be assessed by the following in vitro & in vivo methods and/or by the following in vitro & in vivo methods well-described in the art. See A fluorescence lifetime-based assay for protease inhibitor profiling on human kallikrein 7 Doering K, Meder G, Hinnenberger M, Woelcke J, Mayr L M, Hassiepen U Biomol Screen.
In particular, the in vitro inhibition of recombinant human neutral endopeptidase (NEP, EC 3.4.24.11) can be determined as follows: […]

T1 sequence (P08473 whole entry): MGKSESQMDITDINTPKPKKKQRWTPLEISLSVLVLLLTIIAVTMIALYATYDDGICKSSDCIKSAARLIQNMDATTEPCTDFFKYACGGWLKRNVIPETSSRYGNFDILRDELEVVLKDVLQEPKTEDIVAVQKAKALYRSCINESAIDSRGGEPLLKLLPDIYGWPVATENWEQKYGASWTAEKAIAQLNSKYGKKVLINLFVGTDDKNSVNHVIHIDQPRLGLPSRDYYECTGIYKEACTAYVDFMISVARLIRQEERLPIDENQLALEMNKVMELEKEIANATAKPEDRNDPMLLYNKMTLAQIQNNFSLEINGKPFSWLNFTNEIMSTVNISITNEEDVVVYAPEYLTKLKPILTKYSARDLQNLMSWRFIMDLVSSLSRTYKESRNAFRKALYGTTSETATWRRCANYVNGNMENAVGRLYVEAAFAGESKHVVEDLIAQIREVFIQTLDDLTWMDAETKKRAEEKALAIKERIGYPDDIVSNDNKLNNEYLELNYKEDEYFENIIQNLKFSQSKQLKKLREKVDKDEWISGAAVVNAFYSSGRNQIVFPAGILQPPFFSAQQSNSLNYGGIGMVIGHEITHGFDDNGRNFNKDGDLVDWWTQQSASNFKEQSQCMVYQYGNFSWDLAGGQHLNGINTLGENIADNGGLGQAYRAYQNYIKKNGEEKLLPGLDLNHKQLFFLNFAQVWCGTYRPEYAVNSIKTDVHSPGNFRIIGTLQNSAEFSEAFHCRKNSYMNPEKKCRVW

Question: How did the pIC50 turn out when `COc1ccccc1-c1ccc(C[C@H](CC(C)C(=O)O)NC(=O)CCC(=O)O)cc1` (stereo partly drawn) [Example 6, (S)-4-(3-Carboxy-propionylamino)-5-(2′-methoxy-biphenyl-4-yl)-2-methyl-pentanoic acid] was run?
Answer: 8.52
